Entries after “also recorded” stand apart in the source; their conditions may differ.
Assays:
[1] = tested on: Plasma leptin; assay: Plasma leptin of wild-type mice after 3 weeks treatment; format: in vivo; settings: 50 mg/kg oral gavage for 3 weeks; relative to vehicle
Protocol: FIGS. 17A-17B. Pharmacological inhibition of EPAC reduces plasma leptin and enhances leptin signaling in hypothalamus (A) Western blotting of pSTAT3 Y705, total STAT3, SOCS3, SHP2 and α-tubulin in organotypic brain slices at hypothalamus level treated with leptin with or without EPAC specific inhibitor. (B) Plasma leptin levels of 8-week-old wild-type mice treated 3 weeks with vehicle or ESI-09 (50 mg/kg).
To explore the feasibility of increasing leptin sensitivity by targeting Epac1 using small molecules, organotypic brain slice cultures were prepared from 11-day old wild-type C57BL/6 mice. After 7 days ex vivo culture, treatment of the brain tissue with the Epac specific antagonist ESI-09 led to an enhanced pSTAT3 Y705 level both at the basal state and in response to leptin stimulation. […] These pharmacological data are in agreement with results obtained using Epac1 KO mice and further confirm that inhibition of Epac1 enhances leptin signaling in the hypothalamus. To further investigate the therapeutic potential of this small molecule, wild-type mice were with ESI-09 (50 mg/kg) or vehicle (corn oil) by oral gavage for 3 weeks.

[2] = biological target: T1, EPAC2 (Mus musculus, UniProt Q9EQZ6); assay: 8-NBD-cAMP competition binding to EPAC2
T1 sequence (Q9EQZ6 1-1011): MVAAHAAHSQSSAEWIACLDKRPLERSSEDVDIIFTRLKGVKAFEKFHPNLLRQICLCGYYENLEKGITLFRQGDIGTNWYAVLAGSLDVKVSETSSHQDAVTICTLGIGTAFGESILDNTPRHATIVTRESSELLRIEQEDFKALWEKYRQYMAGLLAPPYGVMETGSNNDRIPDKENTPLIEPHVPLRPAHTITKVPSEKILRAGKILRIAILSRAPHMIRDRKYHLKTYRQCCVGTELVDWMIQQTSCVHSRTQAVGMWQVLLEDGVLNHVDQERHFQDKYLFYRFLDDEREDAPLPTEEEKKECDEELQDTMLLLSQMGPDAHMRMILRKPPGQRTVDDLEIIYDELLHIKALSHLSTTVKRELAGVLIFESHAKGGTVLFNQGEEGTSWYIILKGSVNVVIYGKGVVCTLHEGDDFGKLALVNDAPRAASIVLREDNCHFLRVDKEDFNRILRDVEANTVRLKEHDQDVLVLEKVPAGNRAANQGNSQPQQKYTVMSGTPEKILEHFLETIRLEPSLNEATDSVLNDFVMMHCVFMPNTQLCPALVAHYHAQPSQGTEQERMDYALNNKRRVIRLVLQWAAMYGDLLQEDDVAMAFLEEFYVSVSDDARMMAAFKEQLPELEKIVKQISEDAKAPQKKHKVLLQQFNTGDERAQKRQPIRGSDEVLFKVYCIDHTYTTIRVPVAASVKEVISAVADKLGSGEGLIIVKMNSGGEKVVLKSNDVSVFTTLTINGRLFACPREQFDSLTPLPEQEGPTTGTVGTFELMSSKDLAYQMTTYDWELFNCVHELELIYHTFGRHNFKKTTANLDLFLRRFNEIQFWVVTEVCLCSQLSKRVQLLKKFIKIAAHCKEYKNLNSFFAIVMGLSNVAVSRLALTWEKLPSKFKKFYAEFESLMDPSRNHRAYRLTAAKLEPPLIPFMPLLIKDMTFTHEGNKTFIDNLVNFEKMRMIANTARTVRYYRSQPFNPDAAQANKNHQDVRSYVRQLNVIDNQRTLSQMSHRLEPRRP
Protocol: Primary screen is performed in black 96-well or 384-well microplates. As an example, 50 nM EPAC2 solution is prepared in 20 mM Tris buffer, pH 7.5, containing 150 mM NaCl, 1 mM EDTA, and 1 mM […]. […] Sample is dispensed into plate and test compounds added from 96-well mother plates. […] Fluorescence intensity signal from 8-NBD was recorded at room temperature (rt) before and after tested compounds are added using SpectaMaxM2 microplate reader (Molecular Devices, Silicon Valley, Calif., USA) with excitation/emission wavelengths set at 470/540 nm.

[3] = tested on: AsPC-1, BxPC-3, and PANC-1; assay: Wound healing assay; format: cell-based; settings: 10.0 μM; AsPC-1, BxPC-3, PANC-1
Protocol: Cells were grown to 95-100% confluency before a scratch wound was made. The medium was changed to RPMI 10% FBS containing 10.0 μM ESI-09. The cells were then incubated at 37° C. in 5% CO2. The wound was imaged at 0 hours and 22 hours after changing the medium. Healing rate was determined by calculating the percentage of wound closure normalized to a 1.0 mm wound according to the following equation: % wound closure=(distance between the edges of the wound before treatment with ES-09−distance between the edges of the wound 22 hours post treatment with ES-09)/1.0×100.

[4] = tested on: AsPC-1 and PANC-1 cells; assay: Cell adhesion assay on collagen I matrix; format: cell-based; settings: pre-treatment 5 minutes, 10 μM 007-AM
Protocol: FIG. 13 ESI-09 inhibits EPAC1-mediated adhesion of PDA cells on collagen I. AsPC-1 and PANC-1 cells were stimulated with vehicle or 10 μM 007-AM after treatment with the indicated concentrations of ESI-09 for 5 minutes. Bars represent mean±s.d.
It has been recently reported that EPAC1 is over-expressed in pancreatic adenocarcinoma (Lorenz et al. (2008) Pancreas 37: 102-103). However, the functional role of EPAC1 elevation in this neoplasm is not clear. The inventors sought to employ ESI-09 to determine the role of EPAC1 signaling in pancreatic cancer. […] In order to determine if the observed impact on cell migration is EPAC1 specific, the effect of suppressing EPAC1 expression on AsPC-1 and PANC-1 migration using RNAi was examined. […] To further determine how ESI-09 inhibits PDA cell migration and invasion, a cell adhesion assay was performed using a collagen I matrix. […] To determine the in vivo anti-metastatic effect of ESI-09, MIA PaCa-2 stably expressing luciferase were orthotopically implanted into the pancreas of athymic nude mice. The mice were randomly divided into two groups and treated with vehicle or ESI-09 (50 mg/kg per day, oral gavage), respectively. The growth and metastasis of the tumors were monitored by weekly bioluminescence imaging using the IVIS bioluminescence imaging system.

CC(C)(C)c1cc(C(=O)C(C#N)=NNc2cccc(Cl)c2)no1 [ESI-09, 3-(5-Tert-Butyl-Isoxazol-3-Yl)-2-[(3-Chlorophenyl)-Hydrazono]-3-Oxo-Propionitrile]
Plasma leptin [1]: significantly reduced | Relative Potency (RA) ([2]; RA = IC50, cAMP/IC50, compound): 3.9 | IC50 ([2]; read-out: Apparent IC50, competing with 8-NBD-cAMP in binding EPAC2): 10 ± 1.2 µM | cell migration, wound healing [3]: significant decrease; also recorded: significantly (P<0.05) decreased | 007-AM induced cell adhesion [4]: decreased 007-AM induced cell adhesion dose-dependently; also recorded: inhibits
